Experimental data published in PubChem BioAssay AID330 (DTP/NCI, 2004).
“And” between values parts separate entries of the source, which are not always exact repeats. Identical values can stand only once. Inconclusive results and toxic doses are left out.

Tested on: P388 leukemia ip, CD2F1 mice, survival T/C
Experiment: NCI In Vivo Anticancer Drug Screen. Data for tumor model P388 Leukemia (intraperitoneal) in CD2F1 (CDF1) mice
Settings: endpoint: median survival time, higher = longer survival
Method in brief: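 Mice carrying the transplanted tumor received test compound or vehicle. Survival was recorded in each group, and the value is the treated-group measurement divided by that of the vehicle-treated control group.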

[1] = dose: 60.0 mg/kg/injection, schedule: Q01DX005 (ip), vehicle: saline with Tween-80
[2] = dose: 120.0 mg/kg/injection, schedule: Q01DX005 (ip), vehicle: saline with Tween-80
[3] = dose: 240.0 mg/kg/injection, schedule: Q01DX005 (ip), vehicle: saline with Tween-80
[4] = dose: 25.0 mg/kg/injection, schedule: Q01DX009 (ip), vehicle: saline
[5] = dose: 50.0 mg/kg/injection, schedule: Q01DX009 (ip), vehicle: saline
[6] = dose: 50.0 mg/kg/injection, schedule: Q01DX009 (ip), vehicle: Klucel (hydroxypropylcellulose) (HPC)
[7] = dose: 100.0 mg/kg/injection, schedule: Q01DX009 (ip), vehicle: Klucel (hydroxypropylcellulose) (HPC)
[8] = dose: 200.0 mg/kg/injection, schedule: Q01DX009 (ip), vehicle: Klucel (hydroxypropylcellulose) (HPC)
[9] = dose: 50.0 mg/kg/injection, schedule: Q01DX005 (ip), vehicle: saline
[10] = dose: 100.0 mg/kg/injection, schedule: Q01DX005 (ip), vehicle: saline
[11] = dose: 200.0 mg/kg/injection, schedule: Q01DX005 (ip), vehicle: saline

## CC(=Nc1cc(Cl)ccc1O)C1=C(O)c2ccccc2C1=O
dose: 50.0 mg/kg/injection, schedule: Q04DX002 (ip), vehicle: saline with Tween-80
  T/C: 94 % of control
dose: 100.0 mg/kg/injection, schedule: Q04DX002 (ip), vehicle: saline with Tween-80
  T/C: 97 % of control
dose: 200.0 mg/kg/injection, schedule: Q04DX002 (ip), vehicle: saline with Tween-80
  T/C: 97 % of control

## COc1ccc2c(c1)CC(CN1CCC3(CC1)C(=O)NCN3c1ccccc1)O2 (stereo not given)
dose: 50.0 mg/kg/injection, schedule: Q01DX009 (ip), vehicle: saline with Tween-80
  T/C: 104 % of control
dose: 100.0 mg/kg/injection, schedule: Q01DX009 (ip), vehicle: saline with Tween-80
  T/C: 101 % of control
dose: 200.0 mg/kg/injection, schedule: Q01DX009 (ip), vehicle: saline with Tween-80
  T/C: 100 % of control

## CC1=CC(C)=NC2NNC(=O)C12 (stereo not given)
[1]
  T/C: 110 % of control
[2]
  T/C: 109 % of control
[3]
  T/C: 105 % of control

## Cc1ncc(CCl)n1Cc1ccccc1
dose: 15.0 mg/kg/injection, schedule: Q01DX005 (ip), vehicle: saline
  T/C: 105 % of control
dose: 30.0 mg/kg/injection, schedule: Q01DX005 (ip), vehicle: saline
  T/C: 106 % of control
dose: 60.0 mg/kg/injection, schedule: Q01DX005 (ip), vehicle: saline
  T/C: 99 % of control

## Cc1nc2ccc(N(C)C)cc2c2c1Cc1c(C)nc3ccc(N(C)C)cc3c1O2
[1]
  T/C: 88 % of control
[2]
  T/C: 88 % of control
[3]
  T/C: 94 % of control

## CCCC(=O)O.CCCC(=O)O.CCCC(=O)O.CCCC(=O)O.[Rh].[Rh]
dose: 0.12 mg/kg/injection, schedule: Q01DX009 (ip), vehicle: saline + alcohol
  T/C: 116 % of control
dose: 0.25 mg/kg/injection, schedule: Q01DX009 (ip), vehicle: saline + alcohol
  T/C: 106 % of control and 122 % of control
dose: 15.63 micrograms/kg/injection, schedule: Q08HX018 (ip), vehicle: saline + alcohol
  T/C: 118 % of control
dose: 31.25 micrograms/kg/injection, schedule: Q01DX009 (ip), vehicle: saline + alcohol
  T/C: 107 % of control
dose: 31.25 micrograms/kg/injection, schedule: Q08HX018 (ip), vehicle: saline + alcohol
  T/C: 118 % of control
dose: 62.5 micrograms/kg/injection, schedule: Q08HX018 (ip), vehicle: saline + alcohol
  T/C: 101 % of control
dose: 125.0 micrograms/kg/injection, schedule: Q01DX009 (ip), vehicle: saline + alcohol
  T/C: 114 % of control
dose: 125.0 micrograms/kg/injection, schedule: Q08HX018 (ip), vehicle: saline + alcohol
  T/C: 113 % of control
dose: 250.0 micrograms/kg/injection, schedule: Q01DX009 (ip), vehicle: saline + alcohol
  T/C: 115 % of control
dose: 250.0 micrograms/kg/injection, schedule: Q08HX018 (ip), vehicle: saline + alcohol
  T/C: 114 % of control
dose: 500.0 micrograms/kg/injection, schedule: Q01DX009 (ip), vehicle: saline + alcohol
  T/C: 122 % of control

## O=NNc1ccc(C(=O)O)cn1
dose: 3.12 mg/kg/injection, schedule: Q01DX009 (ip), vehicle: saline
  T/C: 108 % of control
dose: 6.25 mg/kg/injection, schedule: Q01DX009 (ip), vehicle: saline
  T/C: 100 % of control
dose: 12.5 mg/kg/injection, schedule: Q01DX009 (ip), vehicle: saline
  T/C: 106 % of control
[4]
  T/C: 97 % of control
[5]
  T/C: 100 % of control
dose: 100.0 mg/kg/injection, schedule: Q01DX009 (ip), vehicle: saline
  T/C: 91 % of control
dose: 200.0 mg/kg/injection, schedule: Q01DX009 (ip), vehicle: saline
  T/C: 110 % of control

## C=C1CC2(OC1=O)C(=O)N(C)c1ccc(I)cc12 (stereo not given)
[4]
  T/C: 116 % of control
[5]
  T/C: 87 % of control

## O=C(CNNC(=S)Nc1cccc2ccccc12)c1cccc2c1Nc1ccccc1S2
[6]
  T/C: 101 % of control
[7]
  T/C: 103 % of control
[8]
  T/C: 101 % of control

## O=C(O)CNC(=O)OCC1c2ccccc2-c2ccccc21
dose: 50.0 mg/kg/injection, schedule: Q01DX005 (ip), vehicle: Klucel (hydroxypropylcellulose) (HPC)
  T/C: 100 % of control
dose: 100.0 mg/kg/injection, schedule: Q01DX005 (ip), vehicle: Klucel (hydroxypropylcellulose) (HPC)
  T/C: 95 % of control
dose: 200.0 mg/kg/injection, schedule: Q01DX005 (ip), vehicle: Klucel (hydroxypropylcellulose) (HPC)
  T/C: 100 % of control

## CC(=O)Oc1ccc2ccc3nonc3c2c1
dose: 50.0 mg/kg/injection, schedule: Q01DX005 (ip), vehicle: saline with Tween-80
  T/C: 99 % of control
dose: 100.0 mg/kg/injection, schedule: Q01DX005 (ip), vehicle: saline with Tween-80
  T/C: 99 % of control
dose: 200.0 mg/kg/injection, schedule: Q01DX005 (ip), vehicle: saline with Tween-80
  T/C: 94 % of control

## Cc1cccc2c1/C(=C1/c3ccccc3C(=O)c3cccc(C)c31)c1ccccc1C2=O
dose: 50.0 mg/kg/injection, schedule: Q01DX005 (ip), vehicle: Klucel + Tween-80
  T/C: 87 % of control
dose: 100.0 mg/kg/injection, schedule: Q01DX005 (ip), vehicle: Klucel + Tween-80
  T/C: 90 % of control

## CCc1cccc(C)c1NC(=O)C(=O)CC(=O)c1ccccc1Cl
[9]
  T/C: 103 % of control
[10]
  T/C: 107 % of control
[11]
  T/C: 103 % of control

## COC(=O)C([NH-])c1ccccc1.COC(=O)C([NH-])c1ccccc1.[Cl][Pd][Cl] (stereo not given)
dose: 100.0 mg/kg/injection, schedule: Q04DX003 (ip), vehicle: saline
  T/C: 108 % of control
dose: 200.0 mg/kg/injection, schedule: Q04DX003 (ip), vehicle: saline
  T/C: 104 % of control
dose: 400.0 mg/kg/injection, schedule: Q04DX003 (ip), vehicle: saline
  T/C: 103 % of control

## O=C(CCl)c1ccc2ccc3c(c2c1)Nc1ccccc1S3
[6]
  T/C: 96 % of control
[7]
  T/C: 99 % of control
[8]
  T/C: 93 % of control

## O=C1C(=O)N(c2ccccc2Cl)C(=O)N1Cc1ccccc1
[6]
  T/C: 95 % of control
[7]
  T/C: 98 % of control
[8]
  T/C: 91 % of control

## Cc1ccc2c(c1)C1(SCC(=O)N1c1ccc(Cl)cc1)C(=O)N2 (stereo not given)
[1]
  T/C: 101 % of control
[2]
  T/C: 100 % of control
[3]
  T/C: 100 % of control

## Cn1nnnc1NC#N
dose: 100.0 mg/kg/injection, schedule: Q01DX001 (ip), vehicle: Klucel (hydroxypropylcellulose) (HPC)
  T/C: 107 % of control
dose: 200.0 mg/kg/injection, schedule: Q01DX001 (ip), vehicle: Klucel (hydroxypropylcellulose) (HPC)
  T/C: 113 % of control
dose: 400.0 mg/kg/injection, schedule: Q01DX001 (ip), vehicle: Klucel (hydroxypropylcellulose) (HPC)
  T/C: 108 % of control

## NC(N)=NCC[C@H](N)C(=O)O
[9]
  T/C: 104 % of control
[10]
  T/C: 104 % of control
[11]
  T/C: 97 % of control

## CC(C)(O)c1ccccc1Sc1ccccc1C(C)(C)O
dose: 100.0 mg/kg/injection, schedule: Q01DX001 (ip), vehicle: saline with Tween-80
  T/C: 102 % of control
dose: 200.0 mg/kg/injection, schedule: Q01DX001 (ip), vehicle: saline with Tween-80
  T/C: 103 % of control
dose: 400.0 mg/kg/injection, schedule: Q01DX001 (ip), vehicle: saline with Tween-80
  T/C: 95 % of control

## CCCCOc1cc(C(=O)O)ccc1[N+](=O)[O-]
dose: 50.0 mg/kg/injection, schedule: Q04DX003 (ip), vehicle: saline with Tween-80
  T/C: 100 % of control
dose: 200.0 mg/kg/injection, schedule: Q04DX003 (ip), vehicle: saline with Tween-80
  T/C: 104 % of control

## COc1cc2cc[n+]3c(C)c4ccc(OC)c(OC)c4cc3c2cc1OC (tested in a mixture with another compound)
dose: 20.0 mg/kg/injection, schedule: Q01DX009 (ip), vehicle: saline
  T/C: 150 % of control
dose: 40.0 mg/kg/injection, schedule: Q01DX009 (ip), vehicle: saline
  T/C: 154 % of control and 166 % of control

## CC(C)(C)n1nnnc1N
dose: 12.5 mg/kg/injection, schedule: Q01DX009 (ip), vehicle: Klucel (hydroxypropylcellulose) (HPC)
  T/C: 100 % of control
dose: 25.0 mg/kg/injection, schedule: Q01DX009 (ip), vehicle: Klucel (hydroxypropylcellulose) (HPC)
  T/C: 94 % of control
[6]
  T/C: 105 % of control and 112 % of control
[8]
  T/C: 103 % of control

## O=C(c1ccccc1)N1C=CN(C(=O)c2ccccc2)C(c2ccccc2)C1c1ccccc1 (stereo not given)
dose: 60.0 mg/kg/injection, schedule: Q01DX005 (ip), vehicle: Klucel (hydroxypropylcellulose) (HPC)
  T/C: 88 % of control
dose: 120.0 mg/kg/injection, schedule: Q01DX005 (ip), vehicle: Klucel (hydroxypropylcellulose) (HPC)
  T/C: 90 % of control
